Among the data in ChEMBL document CHEMBL5346982, “Disrupting Kaposi's Sarcoma-Associated Herpesvirus (KSHV) Latent Replication with a Small Molecule Inhibitor” (J Med Chem, 2023) are inhibition and Activity values, retold here.

One assay concerns Human gammaherpesvirus 8. The assay is described as follows: Inhibition of Kaposi's sarcoma-associated herpesvirus His-tagged oligomerization-deficient LANA DBD mutant (1008 to 1146 residues) assessed as disruption of LANA-DNA interaction at 250 uM preincubated with LBS1 representing 5'-Dy682-labeled double stranded DNA probe as substrate for 30 mins followed by compound addition and measured after 30 mins by Electrophoretic mobility shift assay.
Conditions: not given
For orientation: In EMSA bound probe runs differently from free probe, usually more slowly.
Regarding `COc1ccc(-c2cc(C)c(-n3cc(-c4ccc(C(=O)O)cc4)nn3)cn2)cn1`, the inhibition (usually the relative decrease from the control value, in per cent) is under 10%.
On the same count and under the same terms, as for `Cc1cc(-c2cccc(C(=O)O)c2)ncc1-n1cc(-c2ccc(C(=O)O)cc2)nn1`, the figure is under 10%; as for `Cc1cc(-c2cccc(Cl)c2)ncc1-n1cc(-c2ccc(C(=O)O)cc2)nn1`, under 10%; as for `COc1cccc(-c2cc(C)c(-n3cc(-c4ccc(C(=O)O)cc4)nn3)cn2)c1`, under 10%.
Same read-out and setting: as for `Cc1cc(-c2ccccc2)ncc1-n1cc(-c2ccc(C(=O)O)cc2)nn1`, the figure is under 10%.

A further assay has as its system Human gammaherpesvirus 8. The assay is described as follows: Antiviral activity against Kaposi's sarcoma-associated herpesvirus infected in human HEK293 cells transfected with KSHV pGTR4:73 with four terminal repeats and LANA expression cassette containing plasmid assessed as inhibition of LANA-mediated replication of viral latent replication origin TR sequence at 15.625 to 62.5 uM incubated for 3 days by Southern blot analysis. Type of assay: functional, organism-based. The settings on record: dose 15.625-62.5 µM, time 3.0 day.
Consider `COc1ccc(-c2cc(C)c(-n3cc(-c4ccc(C(=O)O)cc4)nn3)cn2)c(Cl)c1`, for which the Activity result is “Dose-Dependent Effect”.
